From ChEMBL document CHEMBL1138389, “Identification of selective neuropeptide Y2 peptide agonists” (Bioorg Med Chem Lett, 2007) come the findings set out here.

Bridge positions count the residues as written; N and C are the ends. Peptide text beside a SMILES is read from it. A value given as a limit tells only on which side of the number the result lay.

The target in assay [1] is T1, Neuropeptide Y receptor type 2 (Homo sapiens, UniProt P49146).
T1 sequence (P49146 whole entry): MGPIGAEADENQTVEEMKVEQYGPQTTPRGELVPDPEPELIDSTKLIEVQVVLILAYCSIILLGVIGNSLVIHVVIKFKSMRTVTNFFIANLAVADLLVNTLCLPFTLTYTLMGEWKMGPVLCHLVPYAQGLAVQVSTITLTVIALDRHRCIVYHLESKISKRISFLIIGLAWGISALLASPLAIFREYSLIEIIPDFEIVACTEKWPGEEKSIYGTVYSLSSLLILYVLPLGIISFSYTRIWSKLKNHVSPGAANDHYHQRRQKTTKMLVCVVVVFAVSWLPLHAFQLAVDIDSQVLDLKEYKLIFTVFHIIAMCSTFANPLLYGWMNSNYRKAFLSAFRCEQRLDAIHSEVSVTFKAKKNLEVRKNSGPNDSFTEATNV
The assay can be described thus: Displacement of human [125I]PYY from NPY2 receptor expressed in human KAN-TS cells. The assay is classed as cell-based.

In assay [2] the target is T2, Neuropeptide Y receptor type 1 (Homo sapiens, UniProt P25929).
T2 sequence (P25929 whole entry): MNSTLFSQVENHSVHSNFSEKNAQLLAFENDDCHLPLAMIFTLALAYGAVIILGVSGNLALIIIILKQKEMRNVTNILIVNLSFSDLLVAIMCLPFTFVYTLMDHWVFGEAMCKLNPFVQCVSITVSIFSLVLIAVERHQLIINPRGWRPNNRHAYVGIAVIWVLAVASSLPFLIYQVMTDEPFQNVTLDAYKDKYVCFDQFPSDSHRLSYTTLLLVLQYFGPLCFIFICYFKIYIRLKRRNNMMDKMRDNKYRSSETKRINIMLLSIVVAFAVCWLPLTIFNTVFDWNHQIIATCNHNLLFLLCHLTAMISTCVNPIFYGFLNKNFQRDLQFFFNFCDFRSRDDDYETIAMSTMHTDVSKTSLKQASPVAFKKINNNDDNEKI
The assay can be described thus: Displacement of [125I]PYY from NPY1 receptor expressed in human SK-N-MC cells. The format is cell-based.

In assay [3] the target is T1, Neuropeptide Y receptor type 2. The assay can be described thus: Agonist activity at human NPY2 receptor expressed in human KAN-TS cells by [35S]GTP-gamma-S incorporation assay. The assay is classed as functional, cell-based. For orientation: Binding of GTPγS marks nucleotide exchange on a G protein.
Assay [4] addresses T3, Neuropeptide Y receptor type 5 (Homo sapiens, UniProt Q15761).
T3 sequence (Q15761 whole entry): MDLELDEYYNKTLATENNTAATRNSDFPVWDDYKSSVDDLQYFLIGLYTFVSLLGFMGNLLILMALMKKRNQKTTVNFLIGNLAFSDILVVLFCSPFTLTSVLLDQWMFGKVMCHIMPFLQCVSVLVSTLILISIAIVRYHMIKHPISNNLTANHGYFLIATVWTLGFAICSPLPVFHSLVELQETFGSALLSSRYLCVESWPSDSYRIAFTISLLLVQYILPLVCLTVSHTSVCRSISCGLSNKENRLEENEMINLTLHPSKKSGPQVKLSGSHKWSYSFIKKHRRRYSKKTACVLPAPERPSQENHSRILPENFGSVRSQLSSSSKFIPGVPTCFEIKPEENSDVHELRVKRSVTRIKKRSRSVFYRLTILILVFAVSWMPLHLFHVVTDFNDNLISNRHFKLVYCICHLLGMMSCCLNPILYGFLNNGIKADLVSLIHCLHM
The assay is described as follows: Displacement of [125I]PYY from NPY5 receptor expressed in human HEK293 cells. The assay is classed as cell-based. On the technique in general: Displacement assays read how much labelled ligand stays bound in the presence of the test substance.

For `CC(=O)N[C@@H](C)C(=O)N[C@@H](CO)C(=O)N[C@@H](CC(C)C)C(=O)N[C@@H](CCCNC(=N)N)C(=O)N[C@@H](Cc1cnc[nH]1)C(=O)N[C@@H](Cc1ccc(O)cc1)C(=O)N[C@@H](CC(C)C)C(=O)N[C@@H](CC(N)=O)C(=O)N[C@@H](CC(C)C)C(=O)N[C@H](C(=O)N[C@H](C(=O)N[C@@H](CCCNC(=N)N)C(=O)N[C@@H](CCC(N)=O)C(=O)N[C@@H](CCCNC(=N)N)C(=O)N[C@@H](Cc1ccc(O)cc1)C(N)=O)[C@@H](C)O)C(C)C`, the figures for the Ki in assay [1] and in assay [2] were 9 nM and 118 nM, respectively. In addition, the EC50 (usually the midpoint of the concentration-response curve) in assay [3] was 13 nM.
On to `CC[C@H](C)[C@@H]1NC(=O)[C@H](CC(C)C)NC(=O)[C@H](CC(N)=O)NC(=O)[C@@H](NC(=O)[C@H](Cc2ccc(O)cc2)NC(=O)[C@H](Cc2cnc[nH]2)NC(=O)[C@H](CCCN=C(N)N)NC(C)=O)CCCCNC(=O)CC[C@@H](C(=O)N[C@@H](CCCN=C(N)N)C(=O)N[C@@H](CCC(N)=O)C(=O)N[C@@H](CCCN=C(N)N)C(=O)N[C@@H](Cc2ccc(O)cc2)C(N)=O)NC1=O` (Ac-RHYKNLIERQRY-NH2; lactam 4-8), for which the Ki (usually a measure of affinity in units of concentration, obtained from inhibition or displacement) in assay [1] (kan-ts) is 75 nM; in assay [2] (sk-n-mc), above 1000 nM; in assay [4] (hek293), above 1000 nM. This molecule displayed an EC50 in assay [3] (kan-ts) of 31 nM.
For Ac-HYLNLVTRQRY-NH2, the Ki was 670 nM in assay [1], above 1000 nM in assay [2] and above 1000 nM in assay [4]. The same molecule yielded an EC50 in assay [3] of 430 nM.
